Experimental data as given in US11932640B1, “Pyrrolo[3,4-b]quinoline compounds as antibacterial agents” (KING FAISAL UNIVERSITY, priority 2023, dated 2024).
Values after ≈ are worked out from the molar mass of the structure shown. Read-outs that look alike come from different tables or passages of the source.

Tests used:
[1] = system: Pseudomonas aeruginosa MTCC 741; assay: Antibacterial MIC, CLSI M07-A10 dilution; assay type: cell-based; conditions: MTCC741
[2] = system: Bacillus subtilis MTCC 441; assay: Antibacterial MIC, CLSI M07-A10 dilution; assay type: cell-based; conditions: MTCC441
[3] = system: Staphylococcus aureus ATCC 29213; assay: Antibacterial MIC, CLSI M07-A10 dilution; assay type: cell-based; conditions: ATCC29213
[4] = system: Klebsiella pneumonia MTCC 618; assay: Antibacterial MIC, CLSI M07-A10 dilution; assay type: cell-based; conditions: Klebsiella pneumoniae, MTCC618
[5] = system: Enterococcus faecium ATCC 35667; assay: Antibacterial MIC, CLSI M07-A10 dilution; assay type: cell-based; conditions: ATCC35667
[6] = system: Escherichia coli MTCC 443; assay: Antibacterial MIC, CLSI M07-A10 dilution; assay type: cell-based; conditions: MTCC443
[7] = system: Staphylococcus epidermidis; assay: Antibacterial MIC, CLSI M07-A10 dilution; assay type: cell-based
[8] = system: Mycobacterium tuberculosis H37Rv strain; assay: Anti-tubercular alamar blue microplate MIC; assay type: cell-based; conditions: 168 h, M. tuberculosis H37Rv, 7 days at 37° C., read-out: anti-mycobacterial activity (MIC)
[9] = target: T1, DNA gyrase from E. coli (Escherichia coli, UniProt P0AES4+P0AES6); assay: E. coli DNA gyrase inhibition (Inspiralis assay); assay type: biochemical
T1 construct: purchased Inspiralis
Protocol: Inhibitory potencies were investigated utilizing the Inspiralis assay on streptavidin-coated 96-well microtiter plates. First, the plates were rehydrated with buffer (20 mM Tris-HCl with pH 7.6, 0.01% w/v BSA, 0.05% v/v Tween 20, 137 mM NaCl) and the biotinylated oligonucleotide was then immobilized. After washing off the unbound oligonucleotide, the enzyme test was performed. […] Reaction solutions were incubated at 37° C. for 30 min. After that, the TF buffer (50 mM NaOAc with pH 5.0, 50 mM NaCl and 50 mM MgCl2) was added to terminate the enzymatic reaction. […] The fluorescence was measured with a microplate reader (BioTek Synergy H4, excitation: 485 nm, emission: 535 nm). Initial screening was done at 100 or 10 μM concentration of inhibitors. […] GraphPad Prism software was used to calculate the IC50 values. The result is given as the average value of three independent measurements.

[10] = system: Staphylococcus aureus ATCC BAA-1556 (MERSA resistant); assay: Antibacterial MIC, CLSI M07-A10 dilution; assay type: cell-based; conditions: ATCCBAA1556
[11] = system: Enterococcus faecium ATCC 51559 (VRE resistant); assay: Antibacterial MIC, CLSI M07-A10 dilution; assay type: cell-based

T1 sequence (P0AES4 whole entry, one chain of several): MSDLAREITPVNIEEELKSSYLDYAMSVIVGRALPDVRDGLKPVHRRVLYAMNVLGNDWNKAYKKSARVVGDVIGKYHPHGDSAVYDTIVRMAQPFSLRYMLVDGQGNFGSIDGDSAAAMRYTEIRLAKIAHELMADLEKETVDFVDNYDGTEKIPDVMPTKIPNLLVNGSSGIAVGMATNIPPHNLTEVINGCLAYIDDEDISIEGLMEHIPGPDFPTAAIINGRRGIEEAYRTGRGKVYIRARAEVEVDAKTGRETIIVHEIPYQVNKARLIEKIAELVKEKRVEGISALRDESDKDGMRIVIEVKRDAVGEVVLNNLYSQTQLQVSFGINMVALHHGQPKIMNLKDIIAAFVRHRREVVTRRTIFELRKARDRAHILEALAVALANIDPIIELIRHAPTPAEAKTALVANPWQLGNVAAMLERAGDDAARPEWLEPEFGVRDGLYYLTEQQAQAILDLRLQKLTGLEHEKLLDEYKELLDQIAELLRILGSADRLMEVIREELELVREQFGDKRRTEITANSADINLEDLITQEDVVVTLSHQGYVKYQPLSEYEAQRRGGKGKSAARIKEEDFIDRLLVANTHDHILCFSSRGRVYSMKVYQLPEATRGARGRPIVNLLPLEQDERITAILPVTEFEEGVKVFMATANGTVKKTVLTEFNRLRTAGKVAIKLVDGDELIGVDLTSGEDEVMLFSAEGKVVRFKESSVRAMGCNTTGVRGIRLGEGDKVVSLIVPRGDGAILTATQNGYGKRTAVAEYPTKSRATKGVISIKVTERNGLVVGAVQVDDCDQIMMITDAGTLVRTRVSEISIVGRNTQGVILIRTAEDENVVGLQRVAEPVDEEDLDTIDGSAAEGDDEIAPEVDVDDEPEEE

Compound | MIC [1] | MIC [2] | MIC [3] | MIC ([4]; Klebsiella pneumonia MTCC 618, read-out: MIC) | MIC [5] | MIC [6] | MIC [7] | MIC [8] | IC50 [9] | MIC [10] | MIC [11] | MIC [4]
CCCCCN(C)Cc1cc(C(=O)O)ccc1N1C(=O)c2nc3c(NC)cc(F)cc3c(O)c2C1=O [Compound 12, 4-(7-fluoro-9-hydroxy-5-(methylamino)-1,3-dioxo-1,3-dihydro-2H-pyrrolo[3,4-b]quinolin-2-yl)-3-((methyl(pentyl)amino)methyl)benzoic acid] | 1 µg/mL (≈ 2.02 µM) | 0.5 µg/mL (≈ 1.01 µM) | 1 µg/mL (≈ 2.02 µM) | 1 µg/mL (≈ 2.02 µM) | 0.5 µg/mL (≈ 1.01 µM) | 4 µg/mL (≈ 8.09 µM) | 0.75 µg/mL (≈ 1.52 µM) | 4 µg/mL (≈ 8.09 µM) | 16 nM | 2 µg/mL (≈ 4.04 µM) | 0.75 µg/mL (≈ 1.52 µM) | –
CN[C@H](CC(C)C)C(=O)N[C@H]1C(=O)N[C@@H](CC(N)=O)C(=O)N[C@H]2C(=O)N[C@H]3C(=O)N[C@H](C(=O)N[C@H](C(=O)O)c4cc(O)cc(O)c4-c4cc3ccc4O)[C@H](O)c3ccc(c(Cl)c3)Oc3cc2cc(c3O[C@@H]2O[C@H](CO)[C@@H](O)[C@H](O)[C@H]2O[C@H]2C[C@](C)(N)[C@H](O)[C@H](C)O2)Oc2ccc(cc2Cl)[C@H]1O [Vancomycin, reference compound] | – | – | – | – | – | – | – | – | – | – | – | > 128 µg/mL
